Test results published in publication PMC12380092, “Chemoenzymatic total synthesis of the antibiotic (−)-13-deoxytetrodecamycin using the Diels–Alderase TedJ” (Chemical Science, 2025).

Biological target: T1, TedJ (Streptomyces sp. WAC04657, UniProt Z9VZN5SQU4)
T1 construct: N-terminal hexa-histidine tag, recombinant in E. coli, purified; homodimer
T1 sequence (Z9VZN5SQU4 20-510): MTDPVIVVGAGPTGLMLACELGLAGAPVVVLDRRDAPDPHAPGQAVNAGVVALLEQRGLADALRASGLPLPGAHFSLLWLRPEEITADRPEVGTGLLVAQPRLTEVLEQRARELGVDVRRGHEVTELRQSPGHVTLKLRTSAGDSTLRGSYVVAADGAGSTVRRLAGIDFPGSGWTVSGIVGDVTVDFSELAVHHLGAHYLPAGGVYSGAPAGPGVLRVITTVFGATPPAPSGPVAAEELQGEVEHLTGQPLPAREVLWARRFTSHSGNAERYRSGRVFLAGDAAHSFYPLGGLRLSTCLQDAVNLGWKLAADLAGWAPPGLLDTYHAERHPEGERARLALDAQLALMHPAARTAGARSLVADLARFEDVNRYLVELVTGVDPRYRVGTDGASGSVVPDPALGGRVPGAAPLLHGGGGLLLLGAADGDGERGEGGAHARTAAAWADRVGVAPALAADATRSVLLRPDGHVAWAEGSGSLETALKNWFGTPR
Test: X-ray crystal structure ([…] Å); MS of denatured protein; absorbance spectrum
Assay type: binding
Conditions: non-covalently bound, co-purified; proposed structural role

Cc1cc2nc3c(=O)[nH]c(=O)nc-3n(C[C@H](O)[C@H](O)[C@H](O)COP(=O)(O)OP(=O)(O)OC[C@H]3O[C@@H](n4cnc5c(N)ncnc54)[C@H](O)[C@@H]3O)c2cc1C [FAD]
X-ray crystal structure (1.6 Å); MS of denatured protein; absorbance spectrum: showing the enzyme active site and non-covalently bound FAD molecule
